According to US20020192223A1 (priority 1989, published 2002):

Key:
[1] = test system: cells obtained from tumors that grew back after BR96-DOX induced regression; assay: In vitro 3[H]-thymidine incorporation IC50; assay type: cell-based; conditions: treatment (regrown tumor cells)
[2] = Maximum tolerated dose, 3 injections 4 days apart; assay type: in vivo, mice; conditions: equivalent DOX dose
Method: The maximum tolerated dose (MTD) (equivalent DOX dose) of the BR96-DOX conjugate (administered as 3 injections 4 days apart) was 20 mg/kg administered intraperitoneally (IP). When administered intravenously (IV) the MTD was ≧10 mg/kg. This was the maximum dose that could be administered IV because of the constraints of injection volume.
The MTD of unconjugated DOX (8 mg/kg IV and 4 mg/kg IP) was lower than that of the BR96-DOX conjugate. Unconjugated DOX administered IV at the MTD produced a delay in tumor growth but no tumor regressions and if the dose was reduced to 50% of the MTD, DOX had no effect.

[3] = test system: RCA colon carcinoma xenografts; assay: BR96-DOX against established subcutaneous xenografts; assay type: in vivo, athymic mice
Method: (§1) Athymic rats were transplanted subcutaneously with human lung adenocarcinoma L2987, colon carcinoma RCA, or breast carcinoma MCF7 and permitted to grow. Therapy (3 treatments 4 days apart) started 14 to 28 days after tumor transplantation when tumors were well established, i.e., when the tumors were 50 to 100 mm^3 in size.
(§2) Mice and rats were administered with BR96-DOX by three injections, each injection being about four days apart. Mice which were injected intraperitoneally (IP) were given 20 mg/kg of BR96-DOX. Mice which were injected intravenously were given 10 mg/kg of BR96. Intravenous (IV) injection involved less volume of BR96 because of the constraints of injection volume, namely, only 10 mg/kg was administrable by IV.
(§3) Controls One set of controls included untreated mice and mice that received (1) DOX (at doses optimized to produce maximal antitumor activity in each model); (2) unconjugated BR96; (3) mixtures of BR96 and DOX; and (4) DOX conjugated to either normal human IgG or the control MAb SN7. Doses of DOX and MAb are presented as mg/kg/[…].
(§4) Treatment with BR96-DOX consistently cured most mice bearing L2987 (FIG. 46A) or RCA (FIG. 46B) tumors. […] Complete tumor regression (CR) refers to a tumor that for a period of time is not palpable. Partial tumor regression (PR) means a decrease in tumor volume to ≦50% of the initial tumor volume.

[4] = test system: L2987 human lung tumor xenografts; assay: Test VI in vivo activity of ChiBR96-ADM conjugates; parameters: species or system athymic mice
Source text: (§5) In general, there were 8-10 mice per control or treatment group. Data are presented as median tumor size for control or treated groups. Antitumor activity is expressed in terms of gross log cell kill (“LCK”) where: [formula]
(§6) T−C is defined as the median time (days) for treated tumors to reach target size minus the median time for control tumors to reach target size and TVDT is the time (days) for control tumors to double in volume (250-500 mm^3). Partial tumor regression (“PR”) refers to a decrease in tumor volume to ≦50% of the initial tumor volume; complete tumor regression (“CR”) refers to a tumor which for a period of time is not palpable; and cure is defined as an established tumor which is not palpable for a period of time ≧10 TVDTs.
(§7) Materials under investigation were administered by the ip or iv route. Adriamycin was diluted in normal saline; antibody and antibody/adriamycin conjugates were diluted in phosphate buffered saline. Compounds were administered on a mg/kg basis calculated for each animal, and doses are presented as mg/kg of equivalent adriamycin/injection. Immunoconjugates were administered on a q4dx3 schedule.
(§8) The antitumor activity of ChiBR96-ADM conjugates was evaluated against established human lung (“L2987”), breast (“MCF7,” obtainable from the ATCC under the accession number ATCC HTB 22; see also I. Hellström, et al., Cancer Research 50:2183 (1990)), and colon (“RCA” from M. Brattain, Baylor University; see also I. Hellström, et al., Cancer Research 50:2183 (1990)) tumors.
(§9) Animals were maintained and tumor xenograft models were established for the MCF7 and RCA and the L2987 human tumor lines as described for the L2987 in Test V. Materials were administered as described in Test V.
For animals bearing the L2987 human lung tumor, therapy typically was initiated when the median tumor size was 75 mm^3 (12-14 days after tumor implant). The average TVDT was 4.8±0.9 days and antitumor activity was assessed at a tumor size of 500 mm^3. In several experiments therapy was initiated when L2987 tumors were 225 mm^3 in size.

[5] = test system: L2987 human lung carcinoma, subcutaneous; assay: BR96-DOX against human lung tumors implanted in rats; assay type: in vivo, athymic Rowett rats
Source text: Athymic mice and athymic Rowett rats (Harlan Sprague Dawley) were used in this study.
as §1
Another set included rats using the protocol used in control mice.

[6] = test system: MCF7 human breast tumor xenografts; assay: Test VI in vivo activity of ChiBR96-ADM conjugates; parameters: species or system athymic mice; conditions: ADM 6 mg/kg, iv
Source text: as §5, §6, §7, §8, §9
The MCF7 tumor is an estrogen-dependent human breast tumor line. Athymic mice were implanted with 0.65 mg (65 day release rate) estradiol pellets (Innovative Research of America, Toledo, Ohio) on the day of tumor implant. Therapy was initiated when the median tumor size was 100 mm^3 (typically 13 days after tumor implant).

[7] = test system: L2987 human lung tumor xenografts; assay: Test V in vivo activity of relaxed BR64 and L6 conjugates; parameters: species or system BALB/c nu/nu mice; conditions: optimized doses of adriamycin
Method: The in vivo antitumor activity of immunoconjugates of adriamycin and relaxed BR64 or relaxed L6 was evaluated.
Congenitally athymic female mice of BALB/c background (BALB/C nu/nu; Harlan Sprague-Dawley, Indianapolis, Ind.) were used. Mice were housed in Thoren caging units on sterile bedding with controlled temperature and humidity. Animals received sterile food and water ad libitum.
The L2987 human tumor line was established as tumor xenograft models in athymic mice. The tumor line was maintained by serial passage in vivo. Tumors were measured in 2 perpendicular directions at weekly or biweekly intervals using calipers. Tumor volume was calculated according to the equation: [formula]
In general, there were 8-10 mice per control or treatment group. Data are presented as median tumor size for control or treated groups. Antitumor activity is expressed in terms of gross log cell kill (“LCK”) where: [formula] […]
For animals bearing the L2987 human lung tumor, therapy was typically initiated when the median tumor size was 75 mm^3(12-14 days after tumor implant). The average TVDT was 4.8±0.9 days and antitumor activity was assessed at a tumor size of 500 mm^3. […]
Materials under investigation were administered by the ip or iv route. […] Compounds were administered on a mg/kg basis calculated for each animal, and doses are presented as mg/kg of equivalent adriamycin/injection. […]

[8] = test system: L2987 spheroids inoculated IV; assay: BR96-DOX against large disseminated tumors; assay type: in vivo, athymic mice; conditions: DOX 8 mg/kg
Source text: L2987 lung carcinoma cells were selected in vitro for the ability to grow as multicellular spheroids. When injected IV into athymic mice or rats, tumors developed at various sites, including lymph nodes, lung, spleen, liver, brain, subcutaneously, and ascites was formed in some animals.
Mice were inoculated IV with L2987 spheroids.
The burden of disseminated disease in these animals was so far advanced that 50% of control animals died during the first 6 days of the experiment. […] Surviving mice were sacrificed 200 days after cell inoculation and sections of lung, lymph nodes, spleen, colon, jejunum, kidney, liver, brain, and heart were examined by histology.

[9] = test system: RCA human colon tumor xenografts; assay: Test VI in vivo activity of ChiBR96-ADM conjugates; parameters: species or system athymic mice
Source text: as §5, §6, §7, §8, §9
For animals bearing the RCA colon tumor, therapy was initiated 15 days after tumor implant when the median tumor size was 75 mm^3. The average TVDT for RCA tumor xenografts was 9.5±1.5 days and antitumor activity was assessed at 400 mm^3.

parental cell line = assay: In vitro 3[H]-thymidine incorporation IC50; assay type: cell-based
[10] = test system: L2987 lung tumor xenografts; assay: BR96-DOX against established subcutaneous xenografts; assay type: in vivo, athymic mice
Method: Athymic rats were transplanted subcutaneously with human lung adenocarcinoma L2987, colon carcinoma RCA, or breast carcinoma MCF7 and permitted to grow. […]
as §2, §3, §4

[11] = Solubility of the hydrazone during conjugation; assay type: physicochemical; conditions: PBS
Method: 3. The solution is transferred back to a round bottom flask equipped with a magnetic stirrer and kept in ice. The solution continuously is blanketed by nitrogen. The volume of the solution is noted. […] A solution of maleimidocaproyl hydrazone of adriamycin in distilled water (5 mg/mL, 6.3×10^−3 M) is prepared (notes 7, 8). The amount (in mL) of this solution needed for the conjugation is determined by the formula: [formula]
10. Brief applications of a sonicator will facilitate dissolution in distilled water. The resulting solution is stable.

In the case of `COc1cccc2c1C(=O)c1c(O)c3c(c(O)c1C2=O)C[C@@](O)(C(=O)CO)C[C@@H]3O[C@H]1C[C@H](N)[C@H](O)[C@H](C)O1` [Adriamycin, adriamycin], the IC50 [1] is reported as 400 ± 100 nM, the “maximum tolerated dose (MTD)” value ([2]; intraperitoneally (IP)) is reported as 4 mg/kg and the “maximum tolerated dose (MTD)” value ([2]; intravenously (IV)) is reported as 8 mg/kg. The “activity against established RCA tumors (growth delay or regressions)” value ([3]; DOX alone) was “not active”, the “tumor regressions: Complete” value ([3]; RCA, q4dx3, DOX 8.0, no MAb) was 0% and the “tumor regressions: Cures” value ([3]; RCA, q4dx3, DOX 8.0, no MAb) was 0%. The “tumor regressions: Partial” value ([3]; RCA, q4dx3, DOX 8.0, no MAb) was 0%, the “tumor regressions: Complete” value ([3]; mouse, in vivo) was 0% and the “tumor regressions: Cures” value ([3]; mouse, in vivo) was 0%. The “tumor regressions: Partial” value ([3]; mouse, in vivo) was 0%, the CR ([4]; ADM 8 mg/kg, iv (Table 16)) was 0% and the Cure ([4]; ADM 8 mg/kg, iv (Table 16)) was 0%. For the same compound, the PR ([4]; ADM 8 mg/kg, iv (Table 16)) was 0%, the LCK ([4]; ADM 8 mg/kg, iv, q4dx3 (Table 16)) was 1.5 and the CR ([4]; ADM 8 mg/kg, no antibody, iv) was 0%. For the same compound, the Cure ([4]; ADM 8 mg/kg, no antibody, iv) was 0%, the PR ([4]; ADM 8 mg/kg, no antibody, iv) was 3.6% and the LCK ([4]; ADM 8 mg/kg, no antibody, iv, q4dx3 (55 mice)) was 1-1.8. For the same compound, the LCK ([4]; FIG. 57, optimized adriamycin (8 mg/kg)) was 1.0 LCK, the LCK ([4]; FIG. 58, optimized adriamycin) was 1.6 LCK and the “MTD of free DOX” value ([5]; 3 injections 4 days apart) was 4 mg/kg. For the same compound, the cures ([5]; rats, 4 mg/kg, 3 injections 4 days apart (MTD of free DOX)) was 25%, the CR [6] was 0% and the Cure [6] was 0%. It also gave an LCK [6] of 1.4, a PR [6] of 0% and an LCK [7] of 1.1 LCK. For the same compound, the “day by which 100% of the mice were dead” value [8] was 140 days, the CR ([9]; 10/405 mg/kg, ip) was 0% and the Cure ([9]; 10/405 mg/kg, ip) was 0%. For the same compound, the LCK ([9]; 10/405 mg/kg, ip) was 0, the PR ([9]; 10/405 mg/kg, ip) was 0% and the CR ([9]; ADM 8/0 mg/kg, iv) was 0%. It also gave a Cure ([9]; ADM 8/0 mg/kg, iv) of 0%, an LCK ([9]; ADM 8/0 mg/kg, iv) of 0.4 and a PR ([9]; ADM 8/0 mg/kg, iv) of 0%. For the same compound, the IC50 (parental cell line) was 300 ± 200 nM, the “tumor regressions: Complete” value ([10]; L2987, q4dx3, DOX 8.0, no MAb) was 0% and the “tumor regressions: Cures” value ([10]; L2987, q4dx3, DOX 8.0, no MAb) was 0%. For the same compound, the “tumor regressions: Partial” value ([10]; L2987, q4dx3, DOX 8.0, no MAb) was 0.8 ± 0.8% and the antitumor activity ([10]; L2987 tumors 250 to 800 mm^3, optimal dose of DOX) was “antitumor activity was not observed”.

In the case of `COc1cccc2c1C(=O)c1c(O)c3c(c(O)c1C2=O)C[C@@](O)(/C(CO)=N/NC(=O)CCCCCN1C(=O)C=CC1=O)C[C@@H]3O[C@H]1C[C@H](N)[C@H](O)[C@H](C)O1` [hydrazone, Maleimidocaproylhydrazone of Adriamycin], the solubility [11] is reported as “not very soluble in PBS”.
